# Laboratory results: patent publication US7790762B2, “Compounds and methods for thiol-containing compound efflux and cancer treatment” (National Jewish Health, priority 2002, dated 2010)
# Read-outs that look alike come from different tables or passages of the source.
# Key:
# Format in all cases: cell-based, human
# A549 cells [1] = test: Intracellular GSH levels by HPLC-EC in A549 cells; conditions: for activity at 25 µM: Homo sapiens; for effect on intracellular GSH (words): A549 cells
# Experimental: (§1) Cell lines and culture conditions. Human lung epithelial cancer (A549), human leukemia HL-60 and human prostate (PC-3) tumor cells were purchased from ATCC (Manassas, Va.). A549 and PC-3 cells were grown in Ham's F12 medium (F12) and Kaighn's modification of Ham's F12 medium (F12K) with 2 mM L-glutamine (ATCC), respectively, supplemented with 10% fetal bovine serum (FBS) and 5% pen/strep (10,000 unit, Cellgro). HL-60 cells were grown in Iscove's modified Dulbecco's medium with 4 mM L-glutamine (ATCC) supplemented with 20% FBS and 5% pen/strep. Cell were grown in T-75 flask at 37° C. and 5% CO2 air atmosphere and in 24-well plates for GSH levels and LDH release measurements.
# (§2) Intracellular levels of GSH. Intracellular GSH levels can be determined by HPLC-EC. Cultured cells from 24-well plates were washed once with 1 ml of PBS and then re-suspended in 0.5 ml of distilled water with 40 μM of digitonin (2 mM stock solution in DMSO) for 30 min at room temperature. Then, 50 μl of 10% meta-phosphoric acid were added (1% final concentration), the samples were sonicated for 2 min, centrifuged at 20,000 g for 10 min, and 0.2 ml of supernatant placed in vials for HPLC analysis. […] The flow rate was […]. The retention time for GSH in these conditions was 7.5 min. The HPLC instrument was from ESA, Inc. (Chelmsford, Mass.), equipped with an autosampler (model 540) and a Coul array detector (model 5600A). The potential applied was +0.75 V vs. H/Pd electrode, and the injection volume 5 μl.
# PC-3 cells [2] = test: Cytotoxicity as LDH release in PC-3 cells; conditions: PC-3, 50 μM, 48 hours treatment
# Experimental: as §1
# (§3) Assessment of cytotoxicity. In one exemplary method, membrane integrity of A549, HL-60 and PC-3 cells was used as an index of drug-induced cytotoxicity, and was assessed by monitoring the release of cytosolic lactate dehydrogenase (LDH). LDH activity was measured in the culture medium and cell lysates (50 mM HEPES, Triton X-100 0.5%, pH 7) using a plate reader format as previously described (41). Briefly, 5 μl of cell culture supernatant and lysates were incubated with 0.24 mM NADH in a Tris/NaCl pH 7.2 buffer in 96-well plates for 5 min at 25° C. The reaction was started by the addition of 9.8 mM pyruvate and the consumption of NADH followed at 340 nm for 5 min at 30° C. Percent LDH release was calculated by the following: (supernatant LDH/supernatant LDH+lysate LDH)×100.
# PC-3 cells [3] = test: Intracellular GSH levels by HPLC-EC in PC-3 cells
# Experimental: as §1, §2
# HL-60 cells [4] = test: Cytotoxicity as LDH release in HL-60 cells; conditions: 48 hours treatment
# Experimental: as §1, §3
# A549 cells [5] = test: Cytotoxicity as LDH release in A549 cells
# Experimental: as §1, §3
# HL-60 cells [6] = test: Intracellular GSH levels by HPLC-EC in HL-60 cells; conditions: for Int. GSH % con.: HL-60, 25 μM
# Experimental: as §1, §2
# [7] = A549, 25 μM, 2 h, read-out: Intracellular GSH levels, % compared to control
# [8] = A549, 25 μM, 4 h, read-out: Intracellular GSH levels, % compared to control
# [9] = PC-3, 25 μM, 24 hours treatment
# [10] = A549, 25 μM, 24 hours treatment
# [11] = A549, 75 μM, 48 hours treatment
smiles,measurement,setting,value
"O=C(/C=C/c1ccccc1O)c1ccccc1 [2-HC, 2-hydroxychalcone]",activity at 25 µM,A549 cells [1]; [7],< 5%
same,activity at 25 µM,A549 cells [1]; [8],< 5%
"C[C@]12CC[C@@H]3c4cc(O)c(O)cc4CC[C@H]3[C@@H]1CC[C@@H]2O [2-HE, 2-hydroxyestradiol, reference compound]",LDH rel. % con.,PC-3 cells [2],113 % con.
same,Int. GSH % con.,PC-3 cells [3]; [9],228 % con.
same,"Intracellular GSH levels, % compared to control","A549 cells [1]; A549, 25 μM, 2 h",69.0 ± 0.5%
same,Int. GSH % con.,A549 cells [1]; [10],<5 % con.
same,LDH rel. % con.,"HL-60 cells [4]; HL-60, 25 μM",250 % con.
same,LDH rel. % con.,A549 cells [5]; [11],150 % con.
same,Int. GSH % con.,HL-60 cells [6]; 24 hours treatment,120 % con.
"COc1cc2c(cc1O)CC[C@@H]1[C@@H]2CC[C@]2(C)[C@@H](O)CC[C@@H]12 [2-ME, 2-methoxyestradiol, reference compound]",LDH rel. % con.,PC-3 cells [2],128 % con.
same,Int. GSH % con.,PC-3 cells [3]; [9],68 % con.
same,Int. GSH % con.,"A549 cells [1]; A549, 50 μM, 24 hours treatment",49 % con.
same,LDH rel. % con.,"HL-60 cells [4]; HL-60, 25 μM",265 % con.
same,LDH rel. % con.,A549 cells [5]; [11],150 % con.
same,Int. GSH % con.,HL-60 cells [6]; 24 hours treatment,41 % con.
"O=C(/C=C/c1ccccc1O)c1ccccc1O [2′,2-DHC, 2′ 2 dihydroxychalcone]","Intracellular GSH levels, % compared to control","A549 cells [1]; A549, 25 μM, 2 h",<5%
same,"Intracellular GSH levels, % compared to control","A549 cells [1]; A549, 25 μM, 4 h",<5%
"O=C(/C=C/c1ccc(O)cc1)c1ccc(O)cc1O [2′,4′,4-THC, 2′,4′,4 trihydroxychalcone]",activity at 25 µM,A549 cells [1]; [7],6.8 ± 0.2%
same,activity at 25 µM,A549 cells [1]; [8],< 5%
"O=C(/C=C/c1ccccc1)c1ccc(O)cc1O [2′,4′-DHC, 2′ 4′ dihydroxychalcone]","Intracellular GSH levels, % compared to control","A549 cells [1]; A549, 25 μM, 2 h",22.0 ± 1.8%
same,"Intracellular GSH levels, % compared to control","A549 cells [1]; A549, 25 μM, 4 h",<5%
"O=C(/C=C/c1ccccc1)c1cc(O)ccc1O [2′,5′-DHC, 2′ 5′ dihydroxychalcone]",LDH rel. % con.,PC-3 cells [2],246 % con.
same,Int. GSH % con.,PC-3 cells [3]; [9],67 % con.
same,"Intracellular GSH levels, % compared to control","A549 cells [1]; A549, 25 μM, 2 h",<5%
same,"Intracellular GSH levels, % compared to control","A549 cells [1]; A549, 25 μM, 4 h",<5%
same,Int. GSH % con.,A549 cells [1]; [10],<5 % con.
same,LDH rel. % con.,"HL-60 cells [4]; HL-60, 50 μM",310 % con.
same,LDH rel. % con.,A549 cells [5]; [11],273 % con.
same,"effect on the toxicities of rotenone (50 μM), curcumin (50 μM) and 2-ME (50 μM)","A549 cells [5]; A549 cells, 48 hours, compound 10 μM (FIG. 20D)",potentiated
same,Int. GSH % con.,HL-60 cells [6]; 24 hours treatment,<5 % con.
"O=C(/C=C/c1ccc(O)cc1)c1ccccc1 [4-HC, 4-hydroxychalcone]",activity at 25 µM,A549 cells [1]; [7],5.5 ± 0.4%
same,activity at 25 µM,A549 cells [1]; [8],< 5%
"O=C(/C=C/c1ccccc1)c1ccc(O)cc1 [4′-HC, 4′-hydroxychalcone]",intracellular GSH levels compared to control,"PC-3 cells [3]; PC-3 cells, 25 μM, 24 hours of treatment (FIG. 19B)",164%
same,activity at 25 µM,A549 cells [1]; [7],35.6 ± 2.9%
same,activity at 25 µM,A549 cells [1]; [8],< 5%
same,intracellular GSH levels compared to control,"HL-60 cells [6]; HL-60 cells, 25 μM, 24 hours of treatment (FIG. 19B)",215%
"O=c1cc(-c2ccccc2)oc2cccc(O)c12 [5-HF, 5-hydroxyflavone]",effect on intracellular GSH (words),A549 cells [1],less effective
same,activity at 25 µM,A549 cells [1]; [8],44.7 ± 3.4%
"O=c1cc(-c2ccccc2)oc2cc(O)ccc12 [7-HF, 7-Hydroxyflavone]","LDH release, % of control at 50 µM","PC-3 cells [2]; Homo sapiens, read-out: LDH rel. % con.",96%
same,activity at 25 µM,"PC-3 cells [3]; Homo sapiens, PC-3, 25 μM, 24 hours treatment, read-out: Int. GSH % con.",63%
same,effect on intracellular GSH (words),A549 cells [1],almost as effective as chrysin
same,activity at 25 µM,A549 cells [1]; [7],58.1 ± 1.4%
same,activity at 25 µM,"A549 cells [1]; A549, 25 μM, 24 hours treatment, read-out: Int. GSH % con.",< 5%
same,"LDH release, % of control at 50 µM","HL-60 cells [4]; Homo sapiens, HL-60, 50 μM, read-out: LDH rel. % con.",113%
same,"LDH release, % of control at 75 µM","A549 cells [5]; Homo sapiens, A549, 75 μM, 48 hours treatment, read-out: LDH rel. % con.",113%
same,activity at 50 µM,"HL-60 cells [6]; Homo sapiens, HL-60, 50 μM, 24 hours treatment, read-out: Int. GSH % con.",56%
